Results from patent US6797861B2, “Seed shattering” (Bayer BioScience NV, priority 1995, dated 2004).

Assays:
Format in all cases: in vivo, Brassica napus
[1] = tested on: pods of oilseed rape cv Fido; experiment: Pod wall senescence and pod shatter tendency of treated plants; settings: spray at 150 mg/l, 35 days after anthesis
Procedure: (§1) Brassica napus cv Fido plants were grown in an unheated greenhouse. At 12 days after germination plants were transferred to, and further grown in, 1000 cm^3 compost. Pods were collected at one week intervals from two to eight weeks after anthesis. The pods were taken from the base of the terminal one of the first three axillary racemes. The pods were separated into dehiscence zone, pod wall and seeds.
(§2) In a further experiment ethylene production was inhibited by treating the pods with aminoethoxyvinylglycine (AVG), a competitive inhibitor of the enzyme ACC-synthase. AVG was applied 28 days after anthesis at 500 mg/l. […] Decreased endogenous ACC concentrations in both dehiscence zone and seeds of the treated pods correlated with the reduced ethylene production. […] A decrease in endogenous IAA content in the dehiscence zone preceding pod opening was also observed in these experiments both in control and in AVG-treated plants.
(§3) To examine the auxin involvement in pod shattering, the synthetic auxin 4-chlorophenoxyacetic acid (4CPA) was used to manipulate auxin levels. 4CPA was applied 35 days after anthesis as a spray at 150 mg/l in order to artificially keep auxin concentration at a high level during the entire period. […] No effect was observed on the endogenous phytohormone concentrations.

[2] = tested on: pods (8% moisture) of oilseed rape cv Fido; experiment: Cantilever bending test of pod opening force; settings: plants sprayed
Procedure: as §1
as §2, with “plants. […]” for “plants.”
3) changes in the mechanical properties of the DZ and their seed shatter resistance by analysing the shatter resistance of individual pods. […] In yet another procedure, susceptibility to crack propagation is determined by friction measurement. In this case, the force generated due to friction between a wedge forced along the DZ is recorded and enables comparison of DZ tissues in selected, extreme examples of resistance.

[3] = tested on: endogenous ACC and IAA in pod tissues; experiment: Endogenous phytohormone (ACC, IAA) concentrations in pod tissues; settings: spray at 150 mg/l, 35 days after anthesis
Procedure: as §1
The samples were grinded with a mortar and pestle and then extracted for 16 hours at −20 C. in a total volume of 80% methanol. Purification and analysis of phytohormones was carried out essentially as described [Bialek and Cohen (1989), Plant Physiol. 90: 398; Prinsen et al. (1991), in: A Laboratory Guide for Cellular and Molecular Plant Biology. Ed. Negrutiu and Gharti-Chhetri. Birkhäuser Verlag, Basel/Boston/Berlin pp.175-185, pp.323-324; Chauvaux et al. (1993), J. Chromatogr. A 657: 337].
Different parts of the pods (pod wall, dehiscence zone and seeds) were screened for endogenous concentrations of the ethylene precursor 1-aminocyclopropane-1-carboxylic acid (ACC) and conjugates thereof as well as for indole-3-acetic acid (IAA) and conjugates thereof.
In a further experiment ethylene production was inhibited by treating the pods with aminoethoxyvinylglycine (AVG), a competitive inhibitor of the enzyme ACC-synthase. AVG was applied 28 days after anthesis at 500 mg/l. […]

Beta-Glucanase = experiment: Beta-glucanase activity in the dehiscence zone; settings: spray at 150 mg/l, 35 days after anthesis
Procedure: as §3

O=C(O)COc1ccc(Cl)cc1 [4CPA, 4-chlorophenoxyacetic acid]
delay of pod wall senescence [1]: about two | pod shatter tendency [1]: distinct retardation | Force needed to initiate crack (pod opening) [2]: 194.9 10^−3N | Force needed to propagate crack (pod opening) [2]: 222.6 10^−3N | effect on endogenous phytohormone concentrations [3]: No effect | Beta-Glucanase activity in the dehiscence zone (Beta-Glucanase): markedly decreased
